The source of these data is patent US20110230367A1, “Amphiphilic Peptides Promoting Production of Target miRNA and Method of Regulating Production of Target miRNA” (SNU R&DB FOUNDATION, priority 2009, published 2011).

For test [1], the system named is recombinant human Dicer processing pre-let7a-1. Nature of the test: Dicer activity assay in the presence of peptide, substrate pre-let7a-1. It is filed as biochemical. The following applies: for initial reaction velocity (V0) of Dicer, normalized to no peptide: 400 nM peptide, pre-let7a-1 substrate, FIG. 2; for initial reaction velocity of Dicer: FIG. 3. The protocol: Two types of pre-miRNA (pre-let7a-1, pre-miR16-1) used as the substrate for the Dicer enzyme activity assay was ordered and manufactured by ST Pharm Co., Ltd (FIG. 1). For Dicer activity assay, the 5′ end of the synthesized pre-miRNA was labeled with ^32p isotope. Two pmole of each pre-miRNA was isotope labeled with […] of [g-^32P]ATP (New England Biolabs) using 10 units of T4 polynucleotide kinase (New England Biolabs). Total volume of 10 μl was isotope labeled for 1 hr at 37° C. The isotope labeled RNA obtained after the reaction was purified using G-25 Sephadex column (Sigma). The purified substrate was used for measuring Dicer enzyme activity. Total reaction mixture of 30 μl containing 1 nM of isotope labeled pre-miRNA and 0.001 u/μl of recombinant human Dicer (Genlantis, CA, USA) were incubated at 37° C. in 24 mM 4-(2-hydroxyethyl)-1-piperazineethanesulfonic acid, HEPES) buffer system containing 200 mM NaCl, 0.04 mM EDTA, 1 mM ATP and 2.5 mM MgCl2(pH 8.0). After reacting for 0, 10, 30, […], 3 μl of each reaction mixture was mixed with 5 μl of RNA gel loading buffer {95% formamide, 10 mM ethylenediaminetetraacetic acid (EDTA), 0.05% FF (xylene cyanol FF)} and incubated for 5 min at 65° C. The amount of the reaction product was determined by gel running in 15% polyacrylamide gel containing 7M urea, and then the initial reaction velocity (V0) from each reaction was compared. The initial reaction velocity (V0) of the enzyme is the reaction velocity of the initial linear time (until 30 min). Each initial velocity was normalized with the initial velocity from each substrate condition without peptide treatment. The initial reaction velocity of Dicer for pre-let7a-1 and pre-miR16-1 without peptide treatment were […] and 0.018 fmole/min, respectively. Each of the initial reaction velocity is a mean data of more than 3 measurements, and the standard deviation is shown as error bars.

Test [2] deals with mature let7a-1 in HCT116 cells. Nature of the test: Production of mature miRNA in HCT116 cells by northern blotting. The test is classed as cell-based. Conditions: 2 μM peptide, 3 hrs, FIG. 4. The method, then:
The HCT116 cell was purchased from American Type Culture Collection (ATCC) and was cultured in RPMI1640 medium at 37° C., under 5% CO2. Total RNA was extracted using Trizol reagent (Invitrogen) according to the manufactures recommended protocol.
The change in RNA amount was analyzed by culturing the cells with 2 μM concentration of peptide 2b or peptide 2c and with lipofectamine.
HCT116 cells were treated with 2 μM of peptide 2b, 2c, 1e or 0.2 μg/ml of doxorubicin for 3 hrs before analyzing the production of mature miRNA in total RNA using northern blotting. The 18S rRNA band intensity was used as the loading control. […] Peptide 1e was used as a negative control. Decade marker (Ambion) and 10˜20 μg of total RNA were separated by using 12.5% polyacrylamide gel containing 7M urea in 20 mM of 3-(N-morpholino)propanesulfonic acid (MOPS)-NaOH(pH 7.0) buffer at 350V for 2 hrs. RNA blotting was performed by chemical cross-linking method. Each of the separated RNA was transferred with the neutral nylon membrane (Hybond NX, Amersham/Pharmacia) and crosslinked to the membrane using 1-ethyl-3-(3-dimethylaminopropyl)carbodiimide (EDC). The membrane was prehybridized with the hybridization buffer (Clontech, CA, USA) containing 50 μl of 10 mg/ml of salmon sperm DNA. Next, the isotope labeled probe DNA which is complementary to the miRNA sequence was hybridized for 2 hrs in the same buffer condition.
The probe was isotope labeled with 25 μCi of [γ-^32P] ATP (New England Biolabs) and 5 units of polynucleotide kinase (New England Biolabs). The probe was ethanol precipitated and dissolved in 50 μl of DEPC treated water for use. The membrane was washed twice for 30 min with 200 ml of wash buffer containing 0.3 M NaCl, 0.03 M sodium citrate and 0.05% sodium dodecyl sulfate (SDS)(pH 7.0), then washed twice for 15 min with 200 ml of wash buffer containing 0.015 M NaCl, 0.0015 M sodium citrate and 0.1% SDS(pH 7.0). The membrane was exposed on the phosphorimager screen and each of the band intensity was detected by FLA-3000 and analyzed by using MultiGauge Ver. 3.0 software (Fuji Photo).

Test [3] has as its target pre-let7a-1. The test can be described thus: Dissociation constant by competitive fluorescence anisotropy with rhodamine-rev peptide probe. The following applies: for Discrimination ratio pre-let7a-1 (in parenthesis): Kd against other RNA (HBV, IRES, other miRNAs)/Kd against target miRNA. The test is classed as binding. The protocol: (§1) The binding affinity between the peptide synthesized in <Example 1> and pre-miRNA from <Example 2> were measured by fluorescence anisotropy using competitive binding method. A rev peptide with rhodamine attached at the N-terminal was used as a fluorescent probe and LS-55 luminescence spectrometer from Perkin-Elmer was use for analysis. A constant temperature of 20° C. was maintained by a water bath. The fluorescent intensity was measured by of 200 nM of rhodamine-rev peptide was measured with an excitation wavelength at 550 nm (band path 10 nm) and detection at 580 nm (band path 10 nm). The integration time […]. Each experimental value is the mean value of 5 measurements. A 20 mM of HEPES{4-(2-hydroxyethyl)-1-piperazineethanesulfonic acid} buffer (pH 7.5) containing 140 mM NaCl, 5 mM KCl and 1 mM MgCl2 was used for measuring the dissociation constant. The dissociation constant was determined according to the Mathematical Formula 1 and using Kaledia graph.
(§2) A and Ao are the fluorescence anistropy in the presence or absence of RNA, whereas ΔA is the difference between these two values. [RNA]0 and [Rh-rev]0 are initial concentrations of RNA and rev peptide binding with rhodamine.
(§3) According the method described in <Example 3>, the dissociation constant between second generation peptide and 2 pre-miRNAs synthesized from <Example 2> was determined using fluorescent polarization detection method and fluorescent probe molecule.

For test [4], the target named is pre-miR24-1. The test is described as above. It is filed as binding. Conditions: Table 6; for Discrimination ratio pre-miR24-1 (in parenthesis): Kd against other RNA/Kd against target miRNA. The method, then:
as §1, §2, §3

For test [5], the target named is IRES (hairpin RNA). The description is as above. The test is classed as binding. Conditions: Table 6. The protocol: as §1, §2, §3
The target of test [6] is HBV (hairpin RNA). The description is as above. The following applies: Table 6. The test is classed as binding. The method, then: as §1, §2, §3
In test [7] the test system is pre-miR16-1. The test is described as above. The test is classed as binding. Conditions: for Discrimination ratio pre-miR16-1 (in parenthesis): Kd against other RNA/Kd against target miRNA. The method, then:
as §1, §2, §3

[8] abbreviates: Table 5, second generation peptides, read-out: Kd value against pre-let7a-1.
[9] abbreviates: Table 6, read-out: Kd pre-let7a-1.
[10] abbreviates: Table 5, second generation peptides, read-out: Kd value against pre-miR16-1.
[11] abbreviates: Table 6, read-out: Kd pre-miR16-1.

“Also recorded” adds a separate entry of the source. Read-outs that look alike come from different tables or passages of the source.

“WKKLLKLLKKWLKLAG [Peptide 2c, Ac-WKKLLKLLKKWLKLAG, 14]”: the “initial reaction velocity (V0) of Dicer, normalized to no peptide” value in test [1] is listed as “increase in initial reaction velocity; also recorded: accelerated”. Moreover, the “level of mature let7a-1” value in test [2] is given as “increased”. The Kd in test [3] (setting [8]) was found to be 0.15 nM; in test [3] (setting [9]), 0.15 nM; in test [4], 0.88 nM; in test [5], 0.46 nM; in test [6] it was 0.46 nM; in test [7] (setting [10]), 0.27 nM. Moreover, the Kd in test [7] (setting [11]) came out at 0.27 nM. In addition, in test [3] (Table 6), the “Discrimination ratio pre-let7a-1 (in parenthesis)” value came to 2.8. Moreover, the “Discrimination ratio pre-miR24-1 (in parenthesis)” value in test [4] was 0.41. Besides, the “binding with pre-miR16-1” value in test [7] was “first and second strongest binding”. The “Discrimination ratio pre-miR16-1 (in parenthesis)” value in test [7] (Table 6) came out at 1.4.

Take “WKKLLKWLKKLLKLAG [Peptide 2b, Ac-WKKLLKWLKKLLKLAG, 13]”: the “initial reaction velocity (V0) of Dicer, normalized to no peptide” value in test [1] is “highest acceleration; also recorded: profound increase”. The hill slope in test [1] (FIG. 3, concentration dependence, pre-miRNA substrate not named) stood at 3.5. For the same sequence, the concentration for a half-maximal effect (EC50) in test [1] (FIG. 3, concentration dependence, pre-miRNA substrate not named, read-out: EC50 of initial velocity of Dicer in processing pre-miRNA) worked out at 940 nM. The “initial reaction velocity of Dicer” value in test [1] (peptide concentration higher than 100 nM) was “significant increase; also recorded: rapid increase”; in test [1] (peptide concentration higher than 1,000 nM), “decrease”. In addition, the “level of mature let7a-1” value in test [2] is listed as “significant increase”. In addition, in test [3], the “binding with pre-let7a-1” value is “strong binding; also recorded: strongest binding”. For the same sequence, the Kd in test [3] (setting [8]) was 0.067 nM; in test [3] (setting [9]), 0.067 nM; in test [4] it was 0.43 nM; in test [5], 1 nM; in test [6] it was 0.9 nM; in test [7] (setting [10]), 0.22 nM. Further, the Kd in test [7] (setting [11]) is 0.22 nM. The “Discrimination ratio pre-let7a-1 (in parenthesis)” value in test [3] (Table 6) is 11. Further, the “discrimination ratio for pre-let7a-1” value in test [3] (mean Kd against all hairpin pre-miRNA/Kd against target pre-miRNA) turned out to be 11. Also, the “Discrimination ratio pre-miR24-1 (in parenthesis)” value in test [4] is given as 1.5. The “binding with pre-miR16-1” value in test [7] is “first and second strongest binding”. Further, the “Discrimination ratio pre-miR16-1 (in parenthesis)” value in test [7] (Table 6) is listed as 1.1.
